Source: patent US9783536B2, “Nitrogen-containing heterocyclic compound or salt thereof” (FUJIFILM Corporation, priority 2013, dated 2017)
Read-outs that look alike come from different tables or passages of the source.

Key:
human PI3Kα protein = target: T1, human PI3Kα protein (Homo sapiens, UniProt P42336); assay: PI3Kα enzyme assay (ADP-Glo); type: biochemical; settings: read-out: PI3Kα enzyme inhibitory activity
T1 construct: purchased Carna Biosciences, Inc; host or cells: baculovirus expression system
Procedure, shortened: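 Biotinylated human PI3Kα (baculovirus-expressed, 4.5 nmol/L) pre-incubated 15 min with compound in Tris-HCl pH 7.5, MgCl2, BSA; reaction 60 min at 25° C with 50 μmol/L PIP2 and 100 μmol/L ATP final. ADP quantified by ADP-Glo luminescence; IC50 calculated.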

[1] = target: T2, GST fusion human ERK2 protein (Homo sapiens, UniProt P28482); assay: ERK2 enzyme assay (1); type: biochemical; settings: read-out: ERK2 enzyme inhibitory activity (1)
T2 construct: purchased Carna Biosciences, Inc; host or cells: E. coli expression system
Procedure, shortened: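 IC50 derived from the proportion of phosphorylated 5-FAM peptide, separated from unphosphorylated peptide by microfluidic mobility shift. Compound was first preincubated 15 min at room temperature with 2.5 nmol/L kinase at pH 7.5, then 43.1 μmol/L ATP plus 4.25 μmol/L substrate reacted 120 min at 25 °C.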

CHO-K1 cells = assay: CHO cell toxicity test; type: cell-based, Chinese hamster; settings: Cricetulus griseus, read-out: IC50 value (concentration at which the number of viable cells was suppressed to 50% or less)
Protocol: In a CHO cell toxicity test, the following was used.
Cell: CHO-K1 cells (derived from Chinese hamster ovary) Test medium: F-12 MEDIUM+FCS (manufactured by Biowest) having a final concentration of 2%
Detection reagent: CELLTITER-GLO™ LUMINESCENT CELL VIABILITY ASSAY (trade name, manufactured by PROMEGA Corporation)
The CHO-K1 cells were seeded in a 96-well microplate for culture at 5,000 cells/well, and cultured in a CO2 incubator (37° C.) for 24 hours. An evaluation compound (final concentration: from 25.00 μmol/L to 0.20 μmol/L, common ratio: […]) was added thereto, followed by culturing for 24 hours, and the number of viable cells was calculated from emission intensity by CELLTITER-GLO™ (trade name, manufactured by PROMEGA Corporation). In the measurement of the emission intensity, VARIOSKAN FLASH (manufactured by Thermo Fisher Scientific Inc.) was used.
Inhibition ratio (%)=100−(A/B)×100
A: Emission intensity in the presence of a test compound
B: Emission intensity in the absence of a test compound

[2] = target: T2, GST fusion human ERK2 protein; assay: ERK2 enzyme assay (2); type: biochemical; settings: read-out: ERK2 enzyme inhibitory activity (2)
Procedure, shortened: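 IC50 values come from mobility-shift measurement of phosphorylated versus unphosphorylated 5-FAM peptide substrate after EDTA quench. Beforehand, compound and 1.25 nmol/L E. coli-expressed GST–human ERK2 stood 15 min at room temperature (pH 7.5), then 1 mmol/L ATP and 4.25 μmol/L substrate (final) were added for 120 min at 25 °C.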

[3] = 4.5 nmol/L PI3Kα, PIP2 50 μmol/L, ATP 100 μmol/L
[4] = 2.5 nmol/L ERK2, ATP 43.1 μmol/L
[5] = CHO-K1 cells, 24 hours culture with compound, CellTiter-Glo

T1 sequence (P42336 whole entry): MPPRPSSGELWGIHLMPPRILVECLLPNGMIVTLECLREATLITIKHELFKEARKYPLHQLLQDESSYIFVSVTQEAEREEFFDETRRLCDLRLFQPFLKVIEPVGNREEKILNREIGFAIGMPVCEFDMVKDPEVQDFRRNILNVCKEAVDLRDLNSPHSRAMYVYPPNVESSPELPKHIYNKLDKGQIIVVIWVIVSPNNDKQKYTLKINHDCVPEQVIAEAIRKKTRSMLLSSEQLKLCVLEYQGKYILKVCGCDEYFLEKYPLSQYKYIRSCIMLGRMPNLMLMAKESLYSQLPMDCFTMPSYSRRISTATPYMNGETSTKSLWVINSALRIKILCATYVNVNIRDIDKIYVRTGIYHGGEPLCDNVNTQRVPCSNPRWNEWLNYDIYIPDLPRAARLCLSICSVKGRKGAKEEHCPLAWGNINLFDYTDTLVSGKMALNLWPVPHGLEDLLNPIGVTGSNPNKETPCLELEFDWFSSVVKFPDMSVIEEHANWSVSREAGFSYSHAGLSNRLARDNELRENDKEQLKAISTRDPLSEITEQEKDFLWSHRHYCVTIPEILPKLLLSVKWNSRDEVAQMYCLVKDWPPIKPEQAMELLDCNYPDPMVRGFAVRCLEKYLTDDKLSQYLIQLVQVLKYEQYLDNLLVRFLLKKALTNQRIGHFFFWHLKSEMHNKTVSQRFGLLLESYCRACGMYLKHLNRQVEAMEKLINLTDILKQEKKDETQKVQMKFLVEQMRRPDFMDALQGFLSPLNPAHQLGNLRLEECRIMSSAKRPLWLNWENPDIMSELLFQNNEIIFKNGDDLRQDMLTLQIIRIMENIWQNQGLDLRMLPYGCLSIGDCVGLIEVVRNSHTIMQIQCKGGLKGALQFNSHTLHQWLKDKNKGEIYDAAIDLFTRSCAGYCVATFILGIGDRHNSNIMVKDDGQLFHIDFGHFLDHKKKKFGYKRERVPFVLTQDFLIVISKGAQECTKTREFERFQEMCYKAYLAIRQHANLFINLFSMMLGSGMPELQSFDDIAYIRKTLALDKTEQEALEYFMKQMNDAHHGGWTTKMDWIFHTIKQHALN
T1 sequence (P27986 whole entry partner): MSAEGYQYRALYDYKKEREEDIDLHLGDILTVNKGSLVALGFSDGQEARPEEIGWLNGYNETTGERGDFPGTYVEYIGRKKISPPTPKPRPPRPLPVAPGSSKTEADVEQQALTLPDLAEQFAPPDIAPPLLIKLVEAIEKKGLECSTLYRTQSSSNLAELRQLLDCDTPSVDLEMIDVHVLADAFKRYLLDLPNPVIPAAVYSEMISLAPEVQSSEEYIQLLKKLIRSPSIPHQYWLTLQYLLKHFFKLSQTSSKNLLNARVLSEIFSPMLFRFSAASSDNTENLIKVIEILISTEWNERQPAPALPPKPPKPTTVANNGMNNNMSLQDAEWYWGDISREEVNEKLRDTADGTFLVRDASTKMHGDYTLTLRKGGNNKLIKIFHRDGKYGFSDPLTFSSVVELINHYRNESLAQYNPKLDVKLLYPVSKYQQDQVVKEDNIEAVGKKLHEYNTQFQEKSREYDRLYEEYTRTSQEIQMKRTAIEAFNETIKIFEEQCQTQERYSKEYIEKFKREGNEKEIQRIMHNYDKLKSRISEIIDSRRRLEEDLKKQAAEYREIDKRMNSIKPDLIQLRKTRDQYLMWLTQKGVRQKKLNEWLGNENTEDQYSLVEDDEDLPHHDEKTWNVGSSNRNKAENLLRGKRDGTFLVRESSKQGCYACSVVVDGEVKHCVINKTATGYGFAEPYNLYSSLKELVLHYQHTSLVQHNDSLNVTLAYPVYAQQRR
T2 sequence (P28482 whole entry, the tested form may be a part): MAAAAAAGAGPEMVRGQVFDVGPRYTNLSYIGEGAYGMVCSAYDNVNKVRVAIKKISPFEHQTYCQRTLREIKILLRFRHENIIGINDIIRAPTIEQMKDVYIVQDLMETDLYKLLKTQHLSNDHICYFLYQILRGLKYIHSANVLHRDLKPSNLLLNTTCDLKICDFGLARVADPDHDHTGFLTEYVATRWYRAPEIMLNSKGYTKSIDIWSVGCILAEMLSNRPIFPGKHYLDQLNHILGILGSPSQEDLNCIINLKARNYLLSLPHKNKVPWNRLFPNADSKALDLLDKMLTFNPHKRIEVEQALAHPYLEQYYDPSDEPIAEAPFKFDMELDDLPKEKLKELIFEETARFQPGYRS

IC50 (human PI3Kα protein; [3]) [nM]	IC50 [1, 4] [nM]	IC50 (human PI3Kα protein) [nM]	IC50 ([1]; ERK2 enzyme assay (1)) [nM]	IC50 ([2]; ERK2 enzyme assay (2)) [nM]	IC50 [2] [nM]	Structure (SMILES)	IC50 (CHO-K1 cells; [5]) [nM]	IC50 (CHO-K1 cells; CHO-K1, 24 h) [nM]
< 1000	< 1000					c1nnc(Nc2ccc3ncc(-c4cnn(CCCN5CCOCC5)c4)cc3n2)s1 [Example 0001, N-(7-(1-(3-morpholinopropyl)-1H-pyrazol-4-yl)-1,5-naphthyridin-2-yl)-1,3,4-thiadiazole-2-amine]	≥ 25000	
< 1000	< 1000					c1nc2ccc(Nc3cc(C4CCOC4)cnn3)nc2cc1-c1cnn(CCCN2CCCC2)c1 (stereo not drawn) [Example 0019, 7-(1-(3-(Pyrrolidin-1-yl)propyl)-1H-pyrazol-4-yl)-N-(5-(tetrahydrofuran-3-yl)pyridazin-3-yl)-1,5-naphthyridine-2-amine]	≥ 25000	
1000 to 10000	< 1000					Cn1cc(-c2cnc3ccc(Nc4cccnn4)nc3c2)cn1 [Example 0037]	≥ 25000	
< 1000	< 1000					OCCOc1cncc(Nc2cnc3ccc(Nc4nnc(C5CCCC5)s4)nc3c2)c1 [Example 0097]	≥ 25000	
< 1000	< 1000					c1csc(Nc2ccc3ncc(-c4cnn(CCCN5CCCC5)c4)cc3n2)n1 [Example 0128]	≥ 25000	
< 1000	< 1000					O=S(=O)(Nc1nnc(Nc2ccc3ncc(-c4cnn(CCN5CCOCC5)c4)cc3n2)s1)c1ccccc1 [Example 0179, N-(5-((7-(1-(2-morpholinoethyl)-1H-pyrazol-4-yl)-1,5-naphthyridin-2-yl)amino)-1,3,4-thiadiazol-2-yl)benzene sulfonamide]	≥ 25000	
		< 1000	< 1000			c1n[nH]cc1Nc1cnc2ccc(Nc3nnc(C4CCC4)s3)nc2c1 [Example 0222, N^2-(5-cyclobutyl-1,3,4-thiadiazol-2-yl)-N^7-(1H-pyrazol-4-yl)-1,5-naphthyridine-2,7-diamine]	≥ 25000	
		< 1000	< 1000			Cn1cc(-c2cnc3ccc(Nc4nnc([C@@H]5CCCO5)s4)nc3c2)cn1 [Example 0231]	≥ 25000	
		< 1000	< 1000			Cn1cc(-c2cnc3ccc(Nc4nnc([C@H]5CCCO5)s4)nc3c2)cn1 [Example 0232]	≥ 25000	
		< 1000	< 1000			c1nc2ccc(Nc3nnc([C@@H]4CCCO4)s3)nc2cc1-c1cnn(CCCN2CCCC2)c1 [Example 0233]	≥ 25000	
		< 1000	< 1000			c1nc2ccc(Nc3nnc([C@H]4CCCO4)s3)nc2cc1-c1cnn(CCCN2CCCC2)c1 [Example 0237]	≥ 25000	
		< 1000	< 1000			c1nc2ccc(Nc3nnc(C4CCOC4)s3)nc2cc1-c1cnn(CCCN2CCCC2)c1 (stereo not drawn) [Example 0238]	≥ 25000	
		< 1000	< 1000			c1nc2ccc(Nc3nnc(C4CCOCC4)s3)nc2cc1-c1cnn(CCCN2CCCC2)c1 [Example 0245]	≥ 25000	
		< 1000	< 1000			c1nc2ccc(Nc3cc(C4CC4)cnn3)nc2cc1-c1cnn(CCCN2CCOCC2)c1 [Example 0298, N-(5-cyclopropylpyridazin-3-yl)-7-(1-(3-morpholinopropyl)-1H-pyrazol-4-yl)-1,5-naphthyridine-2-amine]	≥ 25000	
		< 1000	< 1000			CN(C)CCCn1cc(-c2cnc3ccc(Nc4nncs4)nc3c2)cn1 [Example 0301]	≥ 25000	
		< 1000	< 1000			Cc1nnc(Nc2ccc3ncc(-c4cnn(CCCN(C)C)c4)cc3n2)s1 [Example 0302]	≥ 25000	
		< 1000	< 1000			c1nc2ccc(Nc3nnc(C4CCCO4)s3)nc2cc1-c1cnn(CCCN2CCCC2)c1 (stereo not drawn) [Example 0325, N-(7-(1-(3-(pyrrolidin-1-yl)propyl)-1H-pyrazol-4-yl)-1,5-naphthyridin-2-yl)-5-(tetrahydrofuran-2-yl)-1,3,4-thiadiazole-2-amine]	≥ 25000	
		< 1000	< 1000			c1nc2ccc(Nc3nnc(C4CC4)s3)nc2cc1-c1cnn(CCCN2CCCC2)c1 [Example 0362]	≥ 25000	
		< 1000		< 1000		CC(C)c1cnnc(Nc2ccc3ncc(-c4cn(C)nc4CC4CCOCC4)cc3n2)c1 [Example 0773]	≥ 25000	

The next lines start with the compound.

Structure (SMILES)	IC50 (human PI3Kα protein; [3]) [nM]	IC50 [1, 4] [nM]	IC50 (human PI3Kα protein) [nM]	IC50 ([1]; ERK2 enzyme assay (1)) [nM]	IC50 ([2]; ERK2 enzyme assay (2)) [nM]	IC50 [2] [nM]	IC50 (CHO-K1 cells; [5]) [nM]	IC50 (CHO-K1 cells; CHO-K1, 24 h) [nM]
CC(C)c1cnnc(Nc2ccc3ncc(-c4cnn(Cc5cccc(N)c5)c4)cc3n2)c1 [Example 0712, 7-(1-(3-Aminobenzyl)-1H-pyrazol-4-yl)-N-(5-isopropylpyridazin-3-yl)-1,5-naphthyridine-2-amine]			< 1000		< 1000		≥ 25000	
CC(C)c1cnnc(Nc2ccc3ncc(-c4cnn(CCCN5CCN(C)C(=O)C5)c4)cc3n2)c1 [Example 0723, 4-(3-(4-(6-((5-isopropylpyridazin-3-yl)amino)-1,5-naphthyridin-3-yl)-1H-pyrazol-1-yl)propyl)-1-methylpiperazin-2-one]			< 1000		< 1000		≥ 25000	
CC(C)c1cnnc(Nc2ccc3ncc(-c4cnn(CC(O)CN5CCCC5)c4)cc3n2)c1 (stereo not drawn) [Example 0724, 1-(4-(6-((5-Isopropylpyridazin-3-yl)amino)-1,5-naphthyridin-3-yl)-1H-pyrazol-1-yl)-3-(pyrrolidin-1-yl)propan-2-ol]			< 1000		< 1000		≥ 25000	
COC(CN1CCCC1)Cn1cc(-c2cnc3ccc(Nc4cc(C(C)C)cnn4)nc3c2)cn1 (stereo not drawn) [Example 0725, N-(5-isopropylpyridazin-3-yl)-7-(1-(2-methoxy-3-(pyrrolidin-1-yl)propyl)-1H-pyrazol-4-yl)-1,5-naphthyridine-2-amine]			< 1000		< 1000		≥ 25000	
CC(C)c1cnnc(Nc2ccc3ncc(-c4cnn(CC(F)CN5CCOCC5)c4)cc3n2)c1 (stereo not drawn) [Example 0733]			< 1000		< 1000		≥ 25000	
Cc1ncccc1-c1nn(C)cc1-c1cnc2ccc(Nc3cc(C(C)C)cnn3)nc2c1 [Example 0737]			< 1000		< 1000		≥ 25000	
Cc1cc(-c2nn(C)cc2-c2cnc3ccc(Nc4cc(C(C)C)cnn4)nc3c2)ccn1 [Example 0738]			< 1000		< 1000		≥ 25000	
CCc1cnnc(Nc2ccc3ncc(-c4cn(C)nc4C)cc3n2)c1 [Example 0756, 7-(1,3-Dimethyl-1H-pyrazol-4-yl)-N-(5-ethylpyridazin-3-yl)-1,5-naphthyridine-2-amine]			< 1000		< 1000		≥ 25000	
Cc1nn(C)cc1-c1cnc2ccc(Nc3cc(C(C)C)cnn3)nc2c1 [Example 0757, 7-(1,3-dimethyl-1H-pyrazol-4-yl)-N-(5-isopropylpyridazin-3-yl)-1,5-naphthyridine-2-amine]			< 1000		< 1000		≥ 25000	
CCc1nn(C)cc1-c1cnc2ccc(Nc3cc(C(C)C)cnn3)nc2c1 [Example 0761]			< 1000		< 1000		≥ 25000	
CC(C)c1cnnc(Nc2ccc3ncc(-c4cn(C)nc4CC4CC4)cc3n2)c1 [Example 0781]			< 1000		< 1000			≥ 25000
CC(=O)c1ccc(Cn2cc(-c3cnc4ccc(Nc5cc(C(C)C)cnn5)nc4c3)cn2)cc1 [Example 0795]			< 1000		< 1000		≥ 25000	
COC1CN(CC(Cn2cc(-c3cnc4ccc(Nc5cc(C(C)C)cnn5)nc4c3)cn2)OC)C1 (stereo not drawn) [Example 0812, N-(5-isopropylpyridazin-3-yl)-7-(1-(2-methoxy-3-(3-methoxyazetidin-1-yl)propyl)-1H-pyrazol-4-yl)-1,5-naphthyridine-2-amine]			< 1000		< 1000		≥ 25000	
CCCc1cnnc(Nc2ccc3ncc(-c4cn(C)nc4C)cc3n2)c1 [Example 0919]			< 1000			< 1000	≥ 25000	
